Assay results taken from patent US9844578B2, “Accelerated healing of eye injuries by angiotensin peptides” (UNIVERSITY OF SOUTHERN CALIFORNIA, priority 2013, dated 2017).
Residues, ends and D or L forms follow the SMILES beside them.

System: full-thickness corneal incision
Conditions: rabbit, in vivo
Protocol: Animal Preparation and Procedure:
Before each procedure, the rabbits were anesthetized with a subcutaneous injection of a mixture of ketamine hydrochloride (50-80 mg/kg) and xylazine hydrochloride (5-9 mg/kg). The animal was prepared for sterile surgery conducted under aseptic conditions. Periorbital area was cleaned using 5% povidone iodine solution and a drop of this solution was instilled into the fornix and a speculum was used to hold the eyelids open. Using corneal blade (Keratome 3.2 mm), a clear corneal full-thickness tunnel was created in the same manner as in human phacoemulsification surgery. To prevent the globe collapse after corneal tunnel creation, a small amount of viscoelastic was injected in the anterior chamber through a paracentesis. Gentamicin 25 mg, and dexamethasone 2 mg were injected subconjunctivally. Post-operatively, analgesia was administered. Animals allocated to the treatment group were treated with 1 drop (approximately 50 μl) of the active drug (0.03% or 0.3% Nle3 A(1-7) in 2% hydroxyethyl cellulose in 0.05 M phosphate buffer, pH 6.5) under investigation instilled into the conjunctival sac daily (using a dropper throughout the follow-up period. On the other hand, animals allocated to the control group will be treated with vehicle (2% hydroxyethyl cellulose in 0.05 M phosphate buffer, pH 6.5) eyedrops daily throughout the follow-up period.
These ocular follow-up examinations were done while the animal was under anesthesia as described above. Anterior segment imaging includes red free picture and anterior segment fluorescein imaging using Spectralis (Heildelberg Engineering, Germany) where sequential photos are taken after one drop of 10% fluorescein (Akorn Abit Springs, La.) was instilled in the conjunctival sac and a slight pressure was applied to the globe. This is more commonly known as Seidel's test in which fluorescein strip containing 10% fluorescein was applied topically to the affected area and was examined with a cobalt blue filter. At this point, the fluorescein appears green in color. Any changes in color or surface of the fluorescence area indicate the presence of conical leakage. This imaging data were used to assess the degree of corneal wound healing as well as extent of wound leak. Measurement of the intraocular pressure was performed using Tonopen-AVIVA (TPA, Reichert Inc.).
The injury was also imaged using involved using a Heidelberg Retina Tomograph (HRT) instrument. This is a confocal scanning laser ophthalmoscope which was converted into a confocal corneal microscope using an additional microscope lens which attached to the standard lens. This additional lens enabled the HRT to image cells and cell layers within the cornea to allow an in-life phase assessment of the healing and structure of the cornea to allow detailed views of the conical structure and pathology.

Complications: None
Fundus Exam & Fluorescein angiography: Normal
IOP: Normal
change in intraocular pressure: no change
fundus examination and fluorescein angiography: normal
SMILES: CCCC[C@H](NC(=O)[C@H](CCCNC(=N)N)NC(=O)[C@@H](N)CC(=O)O)C(=O)N[C@@H](Cc1ccc(O)cc1)C(=O)N[C@H](C(=O)N[C@@H](Cc1c[nH]cn1)C(=O)N1CCC[C@H]1C(=O)O)[C@@H](C)CC [Nle3-A(1-7), Asp-Arg-Nle-Tyr-Ile-His-Pro] (HELM PEPTIDE1{D.R.[Nle].Y.I.H.P}$$$$V2.0)
